According to patent US8404434B2, “Method for determining degree of negative effect of macrophages on vertebrate” (Yamasa Corporation, priority 2006, dated 2013):

Tests used:
Peritoneal macrophages [1] = assay: Diacetylspermine production by cultured macrophages with the tricarboxylate carrier inhibitor BTA; assay type: cell-based, mice
Description: (§1) Peritoneal macrophages collected from mice injected with thioglycollate were inoculated into a 96-well microplate (1.25×10^5 cells/well), followed by culturing. In this case, cell culture was performed by use of RPMI 1640 medium containing 10% horse serum, the medium being supplemented with spermine (i.e., a raw material of diacetylpolyamine) (10 μM) and glucose (0, 1, or 2 g/L).
(§2) After completion of culturing, the levels of diacetylspermine and residual glucose contained in the medium were measured through a customary method. As is clear from FIG. 1, diacetylspermine is produced in response to depletion of glucose.
In order to examine the origin of acetyl CoA (i.e., a raw material of diacetylpolyamine), 1,2,3-benzyltricarboxylate (BTA), which is an inhibitor of a tricarboxylate carrier used for transportation of citrate from mitochondria to the cytoplasm, was added in an amount of 10 mM to a medium supplemented with no glucose, followed by measurement of diacetylspermine level.

Peritoneal macrophages [2] = assay: Diacetylspermine production by cultured macrophages with the uncoupler DNP; assay type: cell-based, mice; settings: DNP 100 μM in medium, glucose 2 g/L, spermine 10 μM, cultured for two days; level in medium
Description: as §1, §2
Dinitrophenol (DNP), which is a reagent called “uncoupler” that forcibly reduces the active potential of mitochondria, is added to a medium in an amount of 100 μM, followed by culturing for two days in a manner similar to that described above. After completion of culturing, diacetylspermine level was measured. The medium was supplemented with glucose in an amount of 2 g/L.

SMILES | Diacetylspermine (Peritoneal macrophages [1]; BTA 10 mM in medium supplemented with no glucose, level in medium) [nM] | production of diacetylspermine (Peritoneal macrophages [1]; BTA 10 mM, medium without glucose, result in words) | Diacetylspermine (Peritoneal macrophages [2]) [nM]
O=C(O)c1cccc(C(=O)O)c1C(=O)O [BTA, 1,2,3-benzyltricarboxylate] | 43.0 | inhibited | 
O=[N+]([O-])c1ccc(O)c([N+](=O)[O-])c1 [DNP, Dinitrophenol] |  |  | 61.8
